# Measurements taken from patent US12280059B2, “Acyl-CoA synthetase 4 (ACSL4) inhibitory compound” (CONSEJO NACIONAL DE INVESTIGACIONES CIENTÍFICAS Y TÉCNICAS …, priority 2019, dated 2025).
# Assays:
# [1] = test system: MDA-MB-231 cells; experiment: Cell proliferation inhibition in breast cancer cell line, BrdU incorporation assay; assay type: cell-based; settings: Homo sapiens, 96 h incubation
# Source text: In this experiment, ACSL4 inhibition was studied through proliferation inhibition of MDA-MB-231 cells. Human breast cancer cell line MDA-MB-231 was generously provided by Dr. Vasilios Papadoupoulus (Research Institute of the McGill University Health Centre, Montreal, Canada) and obtained from the Lombardi Comprehensive Cancer Center (Georgetown University Medical Center, Washington D.C. USA), validated by ATCC Cell Line Authentication Service as 100% matching to ATCC cell line HTB-26 (MDA-MB-231).
# The medium was then changed to serum-free medium.
# After 24 h, the cells were switched to 10% FBS-supplemented D-MEM medium and incubated with i) ACSL4 inhibitor A, ii) ACSL4 inhibitor B or iii) rosiglitazone for 96 h.
# [2] = test system: PC-3 cells; experiment: Cell proliferation inhibition in prostate cancer cell line, BrdU incorporation assay; assay type: cell-based; settings: Homo sapiens, 96 h incubation
# Experimental: ACSL4 inhibition was also assessed through proliferation inhibition in the Pc-3 cell line. PC-3 human prostate cancer cell line was generously provided by Dr. Susana Nowicky and validated by ATCC Cell Line Authentication Service as 100% matching to ATCC cell line CRL-1435 (PC-3).
# The medium was then changed to serum-free medium. After 24 h, the cells were switched to 10% FBS-supplemented D-MEM medium and incubated with i) ACSL4 inhibitor A, ii) ACSL4 inhibitor B or iii) rosiglitazone for 96 h.
# [3] = test system: MDA-MB-231 cells; experiment: Migration assay (wound healing); assay type: cell-based, human; settings: for concentration at which differences in wound area were evident: wound healing, 12 h after injury
# Experimental: Cellular migration was measured by the wound healing assay. Cells (7×10^5 cells per well) were seeded in six-well plates. Cells were kept in complete (10% FBS) medium. Cell monolayer was wounded with a plastic tip across the monolayer cells. Wound closures were photographed by a phase contrast microscopy (40×) in the time point 4, 8 and 12 h after scraping. The width of the wound was determined with the Image Pro-Plus program.
# For the wound healing assay, cells were incubated with either vehicle (control), the compound of the invention (inhibitor A) (50 μM) and Rosiglitazone (200 μM). At the specified time points, the distance between the wound edges was measured using Image-Pro Plus software. Results are shown in FIG. 4A-D. Data represent the mean±SD of three independent experiments.
# [4] = test system: MA-10 Leydig cells; experiment: Steroidogenesis assay, progesterone production in cAMP-stimulated MA-10 Leydig cells; assay type: cell-based, mouse
# Experimental: (§1) In the present example, ACSL4 inhibitor effects on steroid production were tested by stimulating MA 10 Leydig and Y1 adrenal cells with cAMP (0.5 mM) for 1 hour and assessing progesterone levels. MA-10 mouse Leydig tumor cells were generously provided by Dr. Mario Ascoli (University of Iowa, Iowa City, Iowa) and cultured in Waymouth MB/752 medium supplemented with 15% horse serum and antibiotics at 37° C. and 5% CO2 as previously described. The culture medium was replaced with serum-free Waymouth medium before experiments.
# [5] = test system: steroid synthesis; experiment: Steroidogenesis in male mice stimulated with hCG; assay type: in vivo, BALB/c mice
# Experimental: Thirty-day-old male BALB/c mice were treated with inhibitor A (10-100 μM) i.p at a dose of 50 ul/mice. After 3 hours the animal received a single s.c injection of human Chorionic Gonadotrophin (300 U/mice). After 3 hours the animal were sacrificed and assessed for testosterone, pregnenolone and progesterone levels FIG. 13 A, corticosterone FIG. 13 B and steroids in Pc-3 cell FIG. 13 C.
# [6] = biological target: T1, ACSL4 (Homo sapiens, UniProt O60488); experiment: 3H-arachidonic acid incorporation into MDA-MB-231 cells (ACSL4 activity); assay type: cell-based; settings: serum stimulated
# T1 construct: evaluated in MDA-MB-231 cells, in which ACSL4 activity plays a key role in tumor biology; endogenous in cells; host or cells: MDA-MB-231
# T1 sequence (O60488 whole entry): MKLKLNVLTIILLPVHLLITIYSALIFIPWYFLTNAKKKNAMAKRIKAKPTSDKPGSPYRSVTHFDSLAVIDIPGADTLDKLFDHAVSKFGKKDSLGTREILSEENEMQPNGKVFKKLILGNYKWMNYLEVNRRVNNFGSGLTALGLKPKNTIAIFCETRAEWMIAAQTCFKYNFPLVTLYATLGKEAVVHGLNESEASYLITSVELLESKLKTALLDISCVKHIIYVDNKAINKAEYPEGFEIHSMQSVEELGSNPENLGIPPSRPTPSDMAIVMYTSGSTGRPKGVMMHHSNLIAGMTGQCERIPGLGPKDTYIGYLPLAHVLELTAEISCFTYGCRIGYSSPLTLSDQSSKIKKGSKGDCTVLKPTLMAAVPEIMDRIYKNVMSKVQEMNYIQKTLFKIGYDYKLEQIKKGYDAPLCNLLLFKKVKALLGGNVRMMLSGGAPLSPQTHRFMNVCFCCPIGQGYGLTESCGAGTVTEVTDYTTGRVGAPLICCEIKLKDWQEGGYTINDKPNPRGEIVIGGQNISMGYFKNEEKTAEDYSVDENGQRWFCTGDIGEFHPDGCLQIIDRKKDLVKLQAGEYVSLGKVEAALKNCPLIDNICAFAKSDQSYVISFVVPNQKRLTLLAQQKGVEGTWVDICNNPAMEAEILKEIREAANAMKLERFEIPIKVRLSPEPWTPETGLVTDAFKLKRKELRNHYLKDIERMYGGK
# Experimental: The effects of the ACSL4 inhibitor of the invention were evaluated in MDA-MB-231 cells, in which ACSL4 activity plays a key role in tumor biology.
# (§2) ACSL4 activity was determined by measuring the transformation of arachidonic acid (AA) into enzyme product arachidonoyl-CoA (AA CoA), through ^3H-AA incorporation expressed as CPM/10^6 cells×10^−3 with results showing significant ACSL4 inhibition and a consequent significant reduction in AA CoA levels.
# ACSL4 activity was stimulated with serum in tumoral cells.
# [7] = Solubility; assay type: physicochemical; settings: compared with compound B
# [8] = test system: MDA-MB231 cells; experiment: Tumor growth in chick embryo chorioallantoic membrane (CAM) assay; assay type: in vivo; settings: 100 μM, in ovo, Kruskal-Wallis p<0.0001
# Experimental: In this experiment, the in vivo CAM assay platform of IPATIMUP was used to test the effect of inhibitor A to inhibit tumor growth in vivo. The CAMP is a preclinical in vivo model for drug screening.
# Chicken eggs in the early phase of breeding are between in vitro and in vivo systems and provide a vascular test environment not only to study angiogenesis but also to study tumorigenesis. Since the lymphoid system is not fully developed until late stages of incubation, the chick embryo serves as a naturally immunodeficient host capable of sustaining grafted tissues and cells without species-specific restrictions.
# As previously described, breast cancer MDA-MB231 cell line was used as a cell model to assess tumor cell growth. The effects of the compound were compared to those of the vehicle (DMEM).
# The test compound, at the 10 μM and 100 μM, were inoculated together with 0.5×10^6 MDA-MB231 cells into a total of 53 eggs (distributed in two independent experiments), at embryonic development day (EDD) 10. The effects of the compound A were compared to those of the vehicle (DMEM).
# Xenografted cells/tumors were treated in ovo on EDD12 and the experiment ended at EDD 14. At the endpoint, CAMs were fixed (with paraformaldehyde), excised from the embryo and photographed ex ovo.
# The pictures were used to determine the number of neo vessels growing radially towards the inoculation site. […]
# [9] = test system: Y1 adrenal cells; experiment: Steroidogenesis assay, progesterone production in cAMP-stimulated Y1 adrenal cells; assay type: cell-based, mouse; settings: cAMP 0.5 mM, 1 hour
# Experimental: as §1
# Murine Y1 adrenocortical tumor cells were generously provided by Dr B Schimmer (University of Toronto, Toronto, Canada). Methods for the culture of Y1 mouse adrenal tumor cells (American Type Culture Collection, Rockville, MD, USA) have been published elsewhere (Schimmer 1979). Cells were maintained at 37 C in growth medium (HAM F10) containing fetal bovine (2·5%) and horse (12·5%) sera.
# [10] = biological target: T2, ACSL4 (Mus musculus, UniProt Q9QUJ7); experiment: 3H-arachidonic acid incorporation into MA-10 Leydig cells (ACSL4 activity); assay type: cell-based; settings: cAMP stimulated
# T2 construct: evaluated in MA-10 Leydig cells, in which ACSL4 activity plays a key role in steroids synthesis; endogenous in cells; host or cells: MA-10 mouse Leydig tumor cells
# T2 sequence (Q9QUJ7 whole entry): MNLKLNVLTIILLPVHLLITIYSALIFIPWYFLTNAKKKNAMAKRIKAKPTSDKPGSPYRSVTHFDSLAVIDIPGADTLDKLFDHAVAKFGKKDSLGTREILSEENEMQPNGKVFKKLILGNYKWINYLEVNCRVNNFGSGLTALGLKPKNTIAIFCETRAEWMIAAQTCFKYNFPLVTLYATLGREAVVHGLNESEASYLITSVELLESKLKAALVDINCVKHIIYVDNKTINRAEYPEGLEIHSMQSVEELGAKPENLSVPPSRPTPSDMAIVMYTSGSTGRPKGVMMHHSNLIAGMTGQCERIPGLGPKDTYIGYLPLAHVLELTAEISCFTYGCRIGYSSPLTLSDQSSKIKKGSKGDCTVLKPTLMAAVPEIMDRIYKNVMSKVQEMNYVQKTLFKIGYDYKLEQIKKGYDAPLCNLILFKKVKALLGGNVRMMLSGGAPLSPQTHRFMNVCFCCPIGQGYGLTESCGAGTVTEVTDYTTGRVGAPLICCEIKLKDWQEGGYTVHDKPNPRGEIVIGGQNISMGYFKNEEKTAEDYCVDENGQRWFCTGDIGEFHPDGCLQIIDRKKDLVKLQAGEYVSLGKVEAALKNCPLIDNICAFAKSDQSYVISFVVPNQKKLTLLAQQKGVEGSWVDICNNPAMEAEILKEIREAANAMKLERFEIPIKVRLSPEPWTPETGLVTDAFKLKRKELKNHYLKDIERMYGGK
# Experimental: The effects of the ACSL4 inhibitor of the invention were evaluated in MA-10 Leydig cells, in which ACSL4 activity plays a key role in steroids synthesis.
# as §2
# ACSL4 activity was stimulated with cAMP.
SMILES,IC50 [1] [µM],IC50 [2] [µM],concentration at which differences in wound area were evident [3] [µM],inhibition of progesterone synthesis [4],"release of progesterone ([4]; 10 μM, control 3.26 ng/ml) [ng/mL]","minimal concentration significantly inhibiting steroid synthesis ([5]; i.p. 50 ul/mice, hCG stimulation (Example 12)) [µM]","dose at which there was already response in inhibiting steroidogenesis ([5]; in vivo experiment in mice, FIG. 13 A) [µM]","minimal concentration significantly inhibiting steroid synthesis ([4]; cAMP 0.5 mM, 1 hour, progesterone) [µM]",concentrations for inhibiting ACSL4 activity (3H-AA incorporation) [6],solubility [7],tumor growth (tumor area) versus vehicle [8],minimal concentration significantly inhibiting steroid synthesis [9] [µM],concentrations for inhibiting ACSL4 activity (3H-AA incorporation) [10],"inhibition of cell migration (wound healing) ([3]; MDA-MB-231 cells, 50 μM)"
"CN(CCOc1ccc(CC2SC(=O)NC2=O)cc1)c1ccccn1 (centres unmarked) [Rosiglitazone, reference compound]",180,100,200,,,,,,,,,,,
CCC/C=C/C/C=C/C=C/C=N/NN=O [Triacsin C],,,,failed to inhibit progesterone synthesis,46.5,,,,,,,,,
"CC(=O)NC1=Nc2nc3ccccc3n2C(c2cn(-c3ccccc3)nc2-c2ccc(C)o2)N1 (centres unmarked) [inhibitor A, N-(4-(3-(5-methylfuran-2-yl)-1-phenyl-1H-pyrazol-4-yl)-3,4-dihydrobenzo[4,5]imidazo[1,2-a][1,3,5]triazin-2-yl)acetamide]",23,27,50,,,25,10,5,lower than those required for rosiglitazone,higher than the solubility of compound B,Significant statistical differences,5,lower than those required for rosiglitazone,succeeded in inhibiting the migration
"Cc1ccc(-c2nn(-c3ccccc3)cc2C2NC(N)=Nc3nc4ccccc4n32)o1 (centres unmarked) [inhibitor B, 4-(3-(5-methylfuran-2-yl)-1-phenyl-1H-pyrazol-4-yl)-3,4-dihydrobenzo[4,5]imidazo[1,2-a][1,3,5]triazin-2-amine]",45,48,100,,,,,,,,,,,
